Assay results from the supplement of paper PMC10307832.

Tests used:
Test in all cases: relative viability (nuclei count vs DMSO), 5 days (fraction); higher = more cells survive
Daporinad + AZD7762 = compound: O=C(/C=C/c1cccnc1)NCCCCC1CCN(C(=O)c2ccccc2)CC1 [Daporinad] + NC(=O)Nc1cc(-c2cccc(F)c2)sc1C(=O)N[C@H]1CCCNC1 [AZD7762] (partner 0.2 µM)
In short: (§1)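 Lung cancer cell lines in 1536-well plates were dosed by pin tool the day after seeding, either with one drug alone or with a fixed anchor-drug dose plus five library-drug doses (not always all listed) in √10 steps. After 5 days, cells were fixed and their nuclei stained in one step (final 0.05% Triton X-100, 1% formaldehyde, 1 ug/ml Hoechst), then counted on 4× images. Relative viability is the nuclei count in treated wells divided by that in vehicle wells. Values are medians of duplicate plates.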

R406 + Pictilisib = compound: COc1cc(Nc2ncc(F)c(Nc3ccc4c(n3)NC(=O)C(C)(C)O4)n2)cc(OC)c1OC [R406] + CS(=O)(=O)N1CCN(Cc2cc3nc(-c4cccc5[nH]ncc45)nc(N4CCOCC4)c3s2)CC1 [Pictilisib] (partner 1 µM)
In short: as §1

R406 + Decitabine = compound: COc1cc(Nc2ncc(F)c(Nc3ccc4c(n3)NC(=O)C(C)(C)O4)n2)cc(OC)c1OC [R406] + Nc1ncn([C@H]2C[C@H](O)[C@@H](CO)O2)c(=O)n1 [Decitabine] (partner 2 µM)
In short: as §1

Daporinad + Trametinib = compound: O=C(/C=C/c1cccnc1)NCCCCC1CCN(C(=O)c2ccccc2)CC1 [Daporinad] + CC(=O)Nc1cccc(-n2c(=O)n(C3CC3)c(=O)c3c(Nc4ccc(I)cc4F)n(C)c(=O)c(C)c32)c1 [Trametinib] (partner 0.02 µM)
In short: as §1

Cell Line	relative viability (Daporinad + AZD7762; first compound 0.0005 µM)	relative viability (Daporinad + AZD7762; first compound 0.001581 µM)	relative viability (Daporinad + AZD7762; first compound 0.005 µM)	relative viability (Daporinad + AZD7762; first compound 0.01581 µM)	relative viability (R406 + Pictilisib; first compound 0.08 µM)	relative viability (R406 + Pictilisib; first compound 0.253 µM)	relative viability (R406 + Pictilisib; first compound 0.8 µM)	relative viability (R406 + Pictilisib; first compound 2.53 µM)	relative viability (R406 + Pictilisib; first compound 8 µM)	relative viability (R406 + Decitabine; first compound 0.08 µM)	relative viability (R406 + Decitabine; first compound 0.253 µM)	relative viability (R406 + Decitabine; first compound 0.8 µM)	relative viability (R406 + Decitabine; first compound 2.53 µM)	relative viability (R406 + Decitabine; first compound 8 µM)	relative viability (Daporinad + Trametinib; first compound 0.0005 µM)	relative viability (Daporinad + Trametinib; first compound 0.001581 µM)	relative viability (Daporinad + Trametinib; first compound 0.005 µM)	relative viability (Daporinad + Trametinib; first compound 0.01581 µM)
HOP-62	0.406	0.423	0.665	0.262	0.643	0.846	0.863	0.467	0.488	0.26	0.229	0.22	0.221	0.438	0.453	0.427	0.484	0.422
LC-2-ad	0.762	0.88	0.79	0.964	0.554	0.309	0.596	0.12	0.0919	0.775	0.776	0.797	0.533	0.401	0.907	0.983	0.863	0.914
LCLC-97TM1	0.209	0.274	0.238	0.195	0.174	0.172	0.218	0.133	0.148	0.259	0.27	0.247	0.19	0.274	0.188	0.158	0.189	0.177
LCLC-103H	0.829	0.829	0.773	0.851	0.462	0.636	0.595	0.403	0.356	0.707	0.712	0.744	0.746	0.707	0.738	0.69	0.701	0.757
LK-2	0.523	0.36	0.199	0.141	0.462	0.637	0.427	0.462	0.304	0.227	0.469	0.379	0.23	0.21	0.783	0.795	0.764	0.283
LOU-NH91	0.761	0.803	0.905	0.816	0.524	0.526	0.46	0.405	0.414	0.797	0.792	0.779	0.644	0.558	0.797	0.847	0.922	0.941
LU99A	0.31	0.281	0.377	0.307	0.368	0.296	0.357		0.211	0.972	0.87	0.888	0.61	0.591	0.511	0.562	0.598	0.613
LXF-289	1.01	1.14	1.19	1.19	0.724	0.799	0.845	0.634	0.268	0.386	0.372	0.406	0.405	0.396	0.569	0.663	0.689	0.681
NCI-H23	0.273	0.181	0.274	0.203	0.521	0.543	0.695	0.165	0.328	0.258	0.307	0.314	0.308	0.177	0.395	0.382	0.412	0.342
NCI-H322M	0.579	0.592	0.54	0.456	0.519	0.484	0.57	0.235	0.333	0.665	0.669	0.704	0.594	0.557	0.507	0.484	0.504	0.441
NCI-H358	0.473	0.584	0.506	0.67	0.336	0.323	0.319	0.272	0.228	0.224	0.211	0.222	0.119	0.125	0.135	0.152	0.15	0.18
NCI-H441	1.34	1.34	1.52	1.25	0.387	0.375	0.544	0.206	0.258	0.231	0.248	0.276	0.217	0.24	0.351	0.426	0.496	0.573
NCI-H460	0.646	0.587	0.64	0.629	0.33	0.426	0.38	0.224	0.259	0.426	0.596	0.758	0.0438	0.354	0.0943	0.147	0.187	0.206
NCI-H596	0.867	1.09	1.27	1.03	0.368	0.362	0.392	0.316	0.252	0.88	0.994	1.01	0.91	0.372	0.704	0.791	0.74	0.48
NCI-H647	0.428	0.749	0.573	0.514	0.437	0.402	0.418	0.276	0.147	0.39	0.462	0.406	0.486	0.207	0.456	0.572	0.603	0.672
NCI-H650	0.931	0.775	1.32	1.06	0.89	1.04	0.993	0.613	0.604	0.316	0.34	0.34	0.297	0.354	1.05	1.14	1.01	1.27
NCI-H727	0.757	0.466	0.513	0.439	0.386	0.508	0.354	0.175	0.252	0.919	1.16	0.854	0.872	0.847	0.398	0.453	0.375	0.379
NCI-H838	1.02	1.02	0.894	0.837	0.412	0.689	0.407	0.199	0.178	0.496	0.528	0.485	0.363	0.214	0.496	0.637	0.542	0.265

Cell Line	relative viability (Daporinad + AZD7762; first compound 0.0005 µM)	relative viability (Daporinad + AZD7762; first compound 0.001581 µM)	relative viability (Daporinad + AZD7762; first compound 0.005 µM)	relative viability (Daporinad + AZD7762; first compound 0.01581 µM)	relative viability (R406 + Pictilisib; first compound 0.08 µM)	relative viability (R406 + Pictilisib; first compound 0.253 µM)	relative viability (R406 + Pictilisib; first compound 0.8 µM)	relative viability (R406 + Pictilisib; first compound 2.53 µM)	relative viability (R406 + Pictilisib; first compound 8 µM)	relative viability (R406 + Decitabine; first compound 0.08 µM)	relative viability (R406 + Decitabine; first compound 0.253 µM)	relative viability (R406 + Decitabine; first compound 0.8 µM)	relative viability (R406 + Decitabine; first compound 2.53 µM)	relative viability (R406 + Decitabine; first compound 8 µM)	relative viability (Daporinad + Trametinib; first compound 0.0005 µM)	relative viability (Daporinad + Trametinib; first compound 0.001581 µM)	relative viability (Daporinad + Trametinib; first compound 0.005 µM)	relative viability (Daporinad + Trametinib; first compound 0.01581 µM)
NCI-H1355	0.768	0.799	0.869	0.675	0.521	0.571	0.557	0.211	0.313	0.335	0.348	0.377	0.345	0.367	0.409	0.465	0.298	0.557
NCI-H1395	0.386	0.391	0.441	0.384	0.643	0.668	0.678	0.581	0.378	0.685	0.782	0.72	0.572	0.628	1.04	1.04	1.14	1.06
NCI-H1437	1.12	1.16	1.14	1.09	0.368	0.535	0.367	0.236	0.231	0.552	0.623	0.567	0.665	0.472	0.444	0.544	0.551	0.518
NCI-H1651	0.486	0.475	0.554	0.477	0.512	0.652	0.727	0.249	0.251	0.498	0.75	0.654	0.531	0.6	0.854	0.825	0.823	0.757
NCI-H1666	0.773	0.874	0.941	0.851	0.431	0.555	0.515	0.323	0.359	0.672	0.792	0.637	0.936	0.74	0.692	0.843	0.821	0.9
NCI-H1734	0.546	0.521	0.51	0.328	0.434	0.478	0.593	0.248	0.281	0.521	0.524	0.551	0.404	0.399	0.725	0.764	0.724	0.491
NCI-H1755	0.429	0.43	0.462	0.5	0.469	0.415	0.496	0.221	0.195	0.652	0.707	0.676	0.733	0.679	0.751	0.761	0.779	0.768
NCI-H1792	0.55	0.702	0.756	0.955	0.264	0.193	0.302	0.161	0.164	0.558	0.727	0.59	0.515	0.352	0.412	0.471	0.421	0.453
NCI-H1793	0.467	0.511	0.522	0.764	0.367	0.354	0.492	0.168	0.23	0.528	0.469	0.446	0.409	0.177	0.362	0.453	0.525	0.389
NCI-H1915	0.667	0.742	0.716	0.71	0.942	1.03	0.972	0.364	0.74	0.258	0.298	0.265	0.293	0.278	0.28	0.309	0.284	0.368
NCI-H1944	0.474	0.453	0.6	0.579	0.316	0.344	0.348	0.265	0.279	0.393	0.41	0.358	0.383	0.399	0.449	0.464	0.469	0.399
NCI-H1975	0.61	0.752	0.729	0.747	0.29	0.297	0.319	0.162	0.142	0.368	0.401	0.386	0.31	0.19	0.329	0.286	0.341	0.454
NCI-H1993	0.645	0.774	0.787	0.962	0.769	0.814	0.862	0.604	0.928	0.623	0.634	0.599	0.537	0.542	0.485	0.514	0.633	0.555
NCI-H2085	0.879		1.03	1.1	0.413	0.505	0.459	0.482	0.37	0.592	0.58	0.492	0.544	0.451	0.515		0.653	0.538
NCI-H2087	1.21	1.41	1.37	1.17	0.876	1.07	0.92	0.352	0.717	0.24	0.264	0.301	0.221	0.152	0.18	0.213	0.263	0.22
NCI-H2126	1.1	0.976	0.992	1.04	0.508	0.502	0.49	0.437	0.493	0.618	0.629	0.638	0.545	0.582	0.562	0.548	0.604	0.587
NCI-H2170	0.807	0.974	0.979	0.92	0.307	0.269	0.302	0.194	0.24	0.437	0.448	0.487	0.41	0.505	0.789	0.943	0.84	0.948
